# Results taken from US7319109B2, “Farnesoid X receptor agonists” (Smith Kline Beecham Corporation, priority 2002, dated 2008).
# Target: T1, Human FXRα Ligand Binding Domain (FXRα LBD) (Homo sapiens, UniProt Q96RI1)
# T1 construct: polyhistidine (N); made in house; host or cells: E. coli BL21 (DE3), pRSET-A vector
# T1 sequence (Q96RI1 222-472 isoform Q96RI1-2): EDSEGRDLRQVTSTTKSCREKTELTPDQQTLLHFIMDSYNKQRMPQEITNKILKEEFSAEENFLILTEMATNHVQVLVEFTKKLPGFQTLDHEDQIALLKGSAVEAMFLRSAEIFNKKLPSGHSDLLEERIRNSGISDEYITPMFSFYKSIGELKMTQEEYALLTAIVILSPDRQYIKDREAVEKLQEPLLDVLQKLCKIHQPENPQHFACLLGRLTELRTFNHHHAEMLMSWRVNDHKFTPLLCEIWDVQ
# Experiment: FXR Affinity Binding Assay: ligand mediated cofactor peptide (SRC-1 LCD2, 676-700) interaction, time resolved fluorescence
# Conditions: FXRα LBD-APC / europium labeled SRC-1 peptide, TRF signal, at least 2 hours at room temperature; read-out: Activity (pEC50) (converted)
# Procedure: Determination of a ligand mediated cofactor peptide interaction to quantify ligand binding to the nuclear receptor Farnasoid X Receptor (FXR). The method measures the ability of putative ligands to modulate the interaction between the purified bacterial expressed FXRα (LBD) and a synthetic biotinylated peptide based on residues 676-700 of SRC-1(LCD2, 676-700). […] Detection of the associated complex is measured by time resolved fluorescence (TRF). The purified LBD of FXR is labeled with biotin then mixed with stoichiometric amounts of APC labeled streptavidin (Molecular Probes). The biotinylated peptide is then mixed with a ½ stoichiometric amount of europium labeled streptavidin (Wallac Inc). Each is then blocked with a 5 fold excess of biotin and allowed to equilibrate for 15 min. Equimolar amounts of receptor and peptide are mixed together and allowed to equilibrate for at least 30 min prior to the addition to either a variable or constant concentrations of the sample for which the affinity is to be determined. After equilibration, the time-resolved fluorescent signal is quantitated using a fluorescent plate reader. The affinity of the test compound is estimated from a plot of fluorescence versus concentration of test compound added.
# Ligands that promote the complex formation induce a concentration-dependent increase in time-resolved fluorescent signal.
# Human FXRα Ligand Binding Domain (FXRα LBD) was expressed in E.coli strain BL21 (DE3) as an amino-terminal polyhistidine tagged fusion protein. Expression was under the control of an IPTG inducible T7 promoter. DNA encoding this recombinant protein was subcloned into the pRSET-A expression vector (Invitrogen). The coding sequence of Human FXRα LBD was derived from Genbank accession number U 68233 (amino acids 222 to 472).
# Routinely, 30-40 g cell paste (equivalent to 2-3 liters of the fermentation batch) was resuspended in 200-250 mL TBS, pH 7.2 (25mM Tris, 150 mM NaCl). Cells were lysed by passing 3 times through a French Press and cell debris was removed by centrifugation (30 minutes, 20,000 g, 4° C.). The cleared supernatant was filtered through course pre-filters, and TBS, pH 7.2, containing 500 mM imidazole was added to obtain a final imidazole concentration of 50 mM. This lysate was loaded onto a column (6×8 cm) packed with Sepharose [Ni^++ charged]Chelation resin (Pharmacia) and pre-equilibrated with TBS pH 7.21 50 mM imidazole. After washing to baseline absorbance with equilibration buffer, the column was washed with one column volume of TBS pH 7.2 containing 90 mM imidazole. FXRαLBD was eluted directly with 365 mM imidazole. Column fractions were pooled and dialyzed against TBS, pH 7.2, containing 0.5 mM EDTA and 5 mM DTT. The dialyzed protein sample was concentrated using Centri-prep 10 K (Amicon) and subjected to size exclusion, using a column (3×90 cm) packed with Sepharose S-75 resin (Pharmacia) pre-equilibrated with TBS, pH 7.2, containing 0.5 mM EDTA and 5 mM DTT.
# Purified FXRα LBD was desalted/buffer exchanged using PD-10 gel filtration columns into PBS [100 mM NaPhosphate, pH 7.2, 150 mM NaCl]. FXRα LBD was diluted to approximately 10 μM in PBS and five-fold molar excess of NHS-LC-Biotin (Pierce) was added in a minimal volume of PBS. This solution was incubated with gentle mixing for 30 minutes at room temperature. The biotinylation modification reaction was stopped by the addition of 2000× molar excess of Tris-HCl, pH 8. The modified FXRα LBD was dialyzed against 4 buffer changes, each of at least 50 volumes, PBS containing 5 mM DTT, 2 mM EDTA and 2% sucrose.
row,Structure (SMILES),EC50 [nM]
1,"Cc1cc(OCc2c(-c3c(Cl)cccc3Cl)noc2C(C)C)ccc1N(C)S(=O)(=O)c1cccc(C(=O)O)c1 [Example 48, 3-{[(4-{[3-(2,6-Dichlorophenyl)-5-isopropylisoxazol-4-yl]methoxy}-2-methylphenyl)-(methyl)amino]sulfonyl}benzoic acid]",< 100
2,"CC(C)c1onc(-c2c(Cl)cccc2Cl)c1COc1ccc(N(C)S(=O)(=O)c2cccc(C(=O)O)c2)cc1 [Example 49, 3-{[(4-{[3-(2,6-Dichlorophenyl)-5-isopropylisoxazol-4-yl]methoxy}phenyl)(methyl)-amino]sulfonyl}benzoic acid]",102 to 1000
3,CCN(c1ccc(OCc2c(-c3c(Cl)cccc3Cl)noc2C(C)C)cc1Cl)S(=O)(=O)c1cccc(C(=O)O)c1 [Example 50],< 100
4,"CCN(c1ccc(OCc2c(-c3c(Cl)cccc3Cl)noc2C(C)C)cc1)S(=O)(=O)c1cccc(C(=O)O)c1 [Example 52, 3-{[(4-{[3-(2,6-Dichlorophenyl)-5-isopropylisoxazol-4-yl]methoxy}phenyl)(ethyl)-amino]sulfonyl}benzoic acid]",102 to 1000
5,"COC(=O)c1ccc(S(=O)(=O)Nc2ccc(OCc3c(-c4c(Cl)cccc4Cl)noc3C(C)C)cc2Cl)cc1 [Example 53, Methyl 4-{[(2-chloro-4-{[3-(2,6-dichlorophenyl)-5-isopropylisoxazol-4-yl]methoxy}-phenyl)amino]sulfonyl}benzoate]",102 to 1000
6,"COC(=O)c1ccc(S(=O)(=O)Nc2ccc(OCc3c(-c4c(Cl)cccc4Cl)noc3C(C)C)cc2C)cc1 [Example 54, Methyl 4-{[(4-{[3-(2,6-dichlorophenyl)-5-isopropylisoxazol-4-yl]methoxy}-2-methyl-phenyl)amino]sulfonyl}benzoate]",< 100
7,"COC(=O)c1ccc(S(=O)(=O)Nc2ccc(OCc3c(-c4c(Cl)cccc4Cl)noc3C(C)C)cc2)cc1 [Example 55, Methyl 4-{[(4-{[3-(2,6-dichlorophenyl)-5-isopropylisoxazol-4-yl]methoxy}phenyl)-amino]sulfonyl}benzoate]",1020 to 10000
8,"CC(C)c1onc(-c2c(Cl)cccc2Cl)c1COc1ccc(NS(=O)(=O)c2ccc(C(=O)O)cc2)c(Cl)c1 [Example 56, 4-{[(2-Chloro-4-{[3-(2,6-dichlorophenyl)-5-isopropylisoxazol-4-yl]methoxy}phenyl)-amino]sulfonyl}benzoic acid]",1020 to 10000
9,"Cc1cc(OCc2c(-c3c(Cl)cccc3Cl)noc2C(C)C)ccc1NS(=O)(=O)c1ccc(C(=O)O)cc1 [Example 57, 4-{[(4-{[3-(2,6-Dichlorophenyl)-5-isopropylisoxazol-4-yl]methoxy}-2-methylphenyl)-amino]sulfonyl}benzoic acid]",102 to 1000
10,"CC(C)c1onc(-c2c(Cl)cccc2Cl)c1COc1ccc(NS(=O)(=O)c2ccc(C(=O)O)cc2)cc1 [Example 58, 4-{[(4-{[3-(2,6-Dichlorophenyl)-5-isopropylisoxazol-4-yl]methoxy}phenyl)amino]-sulfonyl}benzoic acid]",102 to 1000
11,"COC(=O)c1ccc(S(=O)(=O)N(C)c2ccc(OCc3c(-c4c(Cl)cccc4Cl)noc3C(C)C)cc2C)cc1 [Example 59, Methyl 4-{[(4-{[3-(2,6-dichlorophenyl)-5-isopropylisoxazol-4-yl]methoxy}-2-methyl-phenyl)(methyl)amino]sulfonyl}benzoate]",102 to 1000
12,"COC(=O)c1ccc(S(=O)(=O)N(C)c2ccc(OCc3c(-c4c(Cl)cccc4Cl)noc3C(C)C)cc2)cc1 [Example 60, Methyl 4-{[(4-{[3-(2,6-dichlorophenyl)-5-isopropylisoxazol-4-yl]methoxy}phenyl)-(methyl)amino]sulfonyl}benzoate]",1020 to 10000
13,"CCN(c1ccc(OCc2c(-c3c(Cl)cccc3Cl)noc2C(C)C)cc1)S(=O)(=O)c1ccc(C(=O)OC)cc1 [Example 61, Methyl 4-{[(4-{[3-(2,6-dichlorophenyl)-5-isopropylisoxazol-4-yl]methoxy}phenyl)-(ethyl)amino]sulfonyl}benzoate]",1020 to 10000
